The text below walks through data of ChEMBL document CHEMBL3822436, “New polyhydroxylated flavon-3-ols and 3-hydroxy-2-styrylchromones: synthesis and ROS/RNS scavenging activities” (Eur J Med Chem, 2016).

Holding throughout (type): physicochemical
A short description of series [1]: Antioxidant activity assessed as inhibition of superoxide-induced NBT reduction measured during 2 mins by spectrophotometric analysis.
Series [2] in a line: Antioxidant activity assessed as inhibition of hydrogen peroxide-induced lucigenin oxidation at 1000 uM by chemiluminescence-based assay.
Series [3] in a line: Antioxidant activity assessed as inhibition of HOCl-induced oxidation of non-fluorescent DHR to fluorescent rhodamine-123 by fluorescence-based assay.
A short description of series [4]: Antioxidant activity assessed as inhibition of singlet oxygen-induced oxidation of DHR to fluorescent rhodamine-123 measured after 30 mins by fluorescence microplate screening assay. The conditions noted are these: for inhibition (INH): 0.5 h.
Series [5] can be described thus: Antioxidant activity assessed as inhibition of nitric oxide-induced oxidation of DAF-2 to DAF-2T measured after 30 mins by fluorimetric analysis.
Series [6] can be described thus: Antioxidant activity assessed as inhibition of peroxynitrite-induced oxidation of DHR to rhodamine-123 measured after 2 mins by fluorimetric analysis.
Series [7] in a line: Antioxidant activity assessed as inhibition of peroxynitrite-induced oxidation of DHR to rhodamine-123 measured after 2 mins in presence of NaHCO3 by fluorimetric analysis.
The nature of series [8]: Antioxidant activity assessed as inhibition of superoxide-induced NBT reduction at 100 uM measured during 2 mins by spectrophotometric analysis.
Series [9] is described as follows: Antioxidant activity assessed as inhibition of peroxyl radical-induced oxidation of fluorescein measured as trolox equivalent by ORAC assay.
Series [10] can be described thus: Antioxidant activity assessed as inhibition of peroxynitrite-induced oxidation of DHR to rhodamine-123 at 5 uM measured after 2 mins in presence of NaHCO3 by fluorimetric analysis.

What is called IC50 is the concentration that inhibits the measured activity by half.

With `COc1ccc(-c2oc3c(O)c(O)ccc3c(=O)c2O)cc1OC`, the half-inhibitory concentration (IC50) in [1] turned out to be 21000 nM; in [3], 6300 nM; in [4], 2400 nM; in series [5] it was 55 nM; in [6], 710 nM; in series [7], 2500 nM. In addition, the “inhibition (INH)” value in series [2] was “Not Active”; in series [4] it was “Dose-dependent effect”.

In the case of `COc1ccc2c(=O)c(O)c(/C=C/c3ccc(O)c(O)c3)oc2c1OC`, the “inhibition (INH)” value in series [8] is given as 49%; in series [2], “Not Active”; in series [4], “Dose-dependent effect”. Further, the IC50 stood at 820 nM in [3]; 1200 nM in [4]; 830 nM in series [5]; 570 nM in series [6]; 1300 nM in [7].

For the compound `O=c1c(O)c(-c2ccc(O)c(O)c2)oc2c(O)c(O)ccc12`, the IC50 in series [1] worked out at 19000 nM; in series [3], 2400 nM; in series [4] it was 4200 nM; in [5] it was 120 nM; in series [6] it was 910 nM; in series [7], 930 nM. The “inhibition (INH)” value in series [2] is recorded as “Not Active”; in series [4] it was “Dose-dependent effect”.

On to `COc1ccc2c(=O)c(O)c(-c3ccc(O)c(O)c3)oc2c1OC`, for which the IC50 is 58000 nM in series [1]; 3300 nM in series [3]; 1300 nM in series [4]; 58 nM in [5]; 590 nM in series [6]; 1030 nM in [7]. Besides, the “inhibition (INH)” value in series [2] was “Not Active”; in series [4] it was “Dose-dependent effect”.

`O=c1c(O)c(/C=C/c2ccc(O)c(O)c2)oc2c(O)c(O)ccc12`: the IC50 in [1] came to 30000 nM; in [3], 1420 nM; in series [4], 1000 nM; in series [5], 670 nM; in series [6], 290 nM; in series [7], 980 nM. Also, the “inhibition (INH)” value is listed as “Not Active” in series [2] and “Dose-dependent effect” in [4].

Take `O=c1c(O)c(-c2ccc(O)c(O)c2)oc2cc(O)cc(O)c12` [QUERCETIN]: the IC50 in series [1] worked out at 67000 nM; in series [3], 800 nM; in [6], 760 nM; in series [7] it was 1100 nM. For the same compound, in series [2], the “inhibition (INH)” value is on record as “Not Active”. Besides, the Activity in series [9] is listed as 0.49 uMequiv/uM.

`COc1ccc(/C=C/c2oc3c(O)c(O)ccc3c(=O)c2O)cc1OC`: the IC50 in series [1] worked out at 35000 nM; in series [3], 910 nM; in series [4], 1000 nM; in series [5], 1000 nM; in series [6], 570 nM. Further, the “inhibition (INH)” value in series [2] was “Not Active”; in series [4], “Dose-dependent effect”; in series [10] it was “Not Active”.
